Measured values as given in patent US4104390A, “Thieno [2,3-c] and [3,2-c] pyridines” (Parcor, priority 1976, dated 1978).
Read-outs that look alike come from different tables or passages of the source.

Columns and labels:
[1] = test system: ovalbumen-induced systemic edema; test: Ovalbumen-induced systemic edema method; assay type: in vivo; conditions: rats, 100 mg/kg orally 1 hour before and with ovalbumen; for inhibition in vivo at 100 mg/kg: Rattus norvegicus, po
Method: (b) Ovalbumen-induced systemic edema method
Simultaneous injection of 1 ml ovalbumen and 0.5 ml of a 1% aqueous Evans Blue solution is effected in rats. On the other hand, the animals of the treated group are administered orally 100 mg/kg of the test derivative one hour prior to ovalbumen administration and simultaneously with said administration. The intensity of the phenomenon thus induced is scored according to a scale from 1 to 5 depending on the progress of the inflammatory syndrome. The mean intensity of the edem and the percent decrease of the edema reaction with respect to the control group are thus determined as a function of time.

[2] = test system: collagen-induced blood-platelet aggregation; test: Collagen-induced blood-platelet aggregation; assay type: in vivo, Wistar rats; conditions: rats, 100 mg/kg orally, 3 hours after treatment, collagen (bovine tendon extract), with respect to control group; for inhibition at 100 mg/kg: Rattus norvegicus, po, read-out: Percent inhibition of blood-platelet aggregation, Collagen
Method: (§1) Blood is taken from the jugular vein of Wistar rats. From this citrated blood, and after centrifugation, is reconstituted a plasma containing 600,000 ± 20,000 blood-platelets per ml which is used in all aggregation determinations.
(§2) 0.4 ml plasma is placed in a siliconized tube provided with a magnet bar, also siliconized. The tube is introduced into an aggregometer coupled with an apparatus for recording optical density variations. When light transmission has reached a stable value, 0.5 ml of a solution containing 10 μM A.D.P. (Adenosine-Di-Phosphate) is introduced into the tube.
(§3) Blood-platelet aggregation causes an increase of light transmission followed by a decrease subsequent to the deaggregation phase.
(§4) The maximal optical density variation thus determined characterizes the intensity of the aggregation.
The A.D.P. solution is substituted with a collagen solution (bovine tendon extract).
(§5) Different groups of 20 rats are used, each group being orally administered a test derivative at a dosage of 100 mg/kg.

[3] = test system: carrageenin-induced localized edema; test: Carrageenin-induced localized edema method; assay type: in vivo; conditions: rats, 100 mg/kg orally at -1, 0, 1 and 2.5 hours; for inhibition in vivo at 100 mg/kg: Rattus norvegicus, po
Method: (a) Carrageenin-induced localized edema method
0.1 ml of a 1% carrageenin solution is injected in the metatarsal flexor muscles of the right hind limb of rats at time 0. The animals of the treated group are additionally orally administered 100 mg/kg of the test derivative, respectively one hour prior to injection of the phlogogenic agent, simultaneously with said injection, and then 1 hour and 2.5 hours thereafter. The determinations effected by means of a ROCH micrometer at times 0, 1 hour, 2 hours, 3 hours and 5 hours after carrageenin administration make it possible to determine, as a function of time, the percent anti-inflammatory activity with respect to the reference group.

[4] = test system: A.D.P.-induced blood-platelet aggregation; test: A.D.P.-induced blood-platelet aggregation; assay type: in vivo, Wistar rats; conditions: rats, 100 mg/kg orally, 3 hours after treatment, 10 μM A.D.P. solution, with respect to control group; for inhibition at 100 mg/kg: Rattus norvegicus, po
Method: as §1, §2, §3, §4, §5

[5] = 2 hours after ovalbumen, read-out: Percent anti-inflammatory activity after 2 hours
[6] = 3 hours after ovalbumen, read-out: Percent anti-inflammatory activity after 3 hours
[7] = 1 hour after carrageenin, read-out: Percent anti-inflammatory activity after 1 hour
[8] = 2 hours after carrageenin, read-out: Percent anti-inflammatory activity after 2 hours
[9] = 3 hours after carrageenin, read-out: Percent anti-inflammatory activity after 3 hours
[10] = 5 hours after carrageenin, read-out: Percent anti-inflammatory activity after 5 hours
[11] = read-out: Percent inhibition of blood-platelet aggregation, A.D.P.

SMILES | inhibition in vivo at 100 mg/kg [1, 5] | inhibition in vivo at 100 mg/kg [1, 6] | inhibition at 100 mg/kg [2] | inhibition in vivo at 100 mg/kg [3, 7] | inhibition in vivo at 100 mg/kg [3, 8] | inhibition in vivo at 100 mg/kg [3, 9] | inhibition in vivo at 100 mg/kg [3, 10] | inhibition at 100 mg/kg ([4]; 3 h, heading: Percent inhibition of blood-platelet aggregation) | inhibition at 100 mg/kg [4, 11] | Percent anti-inflammatory activity after 2 hours ([1]; 2 hours after ovalbumen) | Percent anti-inflammatory activity after 3 hours ([1]; 3 hours after ovalbumen) | Percent inhibition of blood-platelet aggregation, Collagen [2] | Percent anti-inflammatory activity after 1 hour ([3]; 1 hour after carrageenin) | Percent anti-inflammatory activity after 2 hours ([3]; 2 hours after carrageenin) | Percent anti-inflammatory activity after 3 hours ([3]; 3 hours after carrageenin) | Percent anti-inflammatory activity after 5 hours ([3]; 5 hours after carrageenin) | Percent inhibition of blood-platelet aggregation, A.D.P. [4]
CC1NCc2ccsc2C1c1ccccc1 (stereo not drawn) [derivative n°2, 6-Methyl-7-phenyl-4,5,6,7-tetrahydro-thieno[3,2-c]pyridine] | 42% | 50% | 92.7% | 42% | 48% | 51% | 54% | 62.4% | – | – | – | – | – | – | – | – | –
c1ccc(C2CNCc3ccsc32)cc1 (stereo not drawn) [derivative n°4, 7-Phenyl-4,5,6,7-tetrahydro-thieno[3,2-c]pyridine] | 54% | 62% | 95% | 38% | 44% | 49% | 53% | – | 64% | – | – | – | – | – | – | – | –
CN1Cc2ccsc2C(c2ccccc2)C1 (stereo not drawn) [derivative n°6, 5-Methyl-7-phenyl-4,5,6,7-tetrahydro-thieno[3,2-c]pyridine] | 47% | 55% | 90.4% | 45% | 52% | 56% | 58% | – | 61.7% | – | – | – | – | – | – | – | –
COc1ccc(C2CN(Cc3ccccc3Cl)Cc3sccc32)cc1 (stereo not drawn) [derivative n°7, 6-o-Chlorobenzyl-4-p-methoxyphenyl-4,5,6,7-tetrahydro-thieno[2,3-c]pyridine] | 52% | 59% | 90.7% | 44% | 50% | 54% | 59% | – | 61.5% | – | – | – | – | – | – | – | –
N#Cc1ccccc1CN1Cc2sccc2C(c2ccccc2)C1 (stereo not drawn) [derivative n°8, 6-o.Cyanobenzyl-4-phenyl-4,5,6,7-tetrahydro-thieno[2,3-c]pyridine] | 46% | 54% | 92.5% | 42% | 49% | 53% | 56% | – | 63.2% | – | – | – | – | – | – | – | –
Clc1ccc(C2CN(Cc3ccccc3Cl)Cc3sccc32)cc1 (stereo not drawn) [derivative n°9, 6-o.Chlorobenzyl-4-p.chlorophenyl-4,5,6,7-tetrahydro-thieno[2,3-c]pyridine] | 48% | 56% | 93.8% | 44% | 52% | 55% | 57% | – | 64.3% | – | – | – | – | – | – | – | –
Cc1ccc(C2CN(Cc3ccccc3Cl)Cc3sccc32)cc1 (stereo not drawn) [derivative n°10, 6-o.Chlorobenzyl-4-p.tolyl-4,5,6,7-tetrahydrothieno[2,3-c]pyridine] | 53% | 60% | 96% | 38% | 45% | 48% | 52% | – | 65% | – | – | – | – | – | – | – | –
Clc1ccccc1CN1Cc2sccc2C(c2ccccc2)C1 (stereo not drawn) [derivative n°11, 6-o.Chlorobenzyl-4-phenyl-4,5,6,7-tetrahydrothieno[2,3-c]pyridine] | 51% | 58% | 91.2% | 39% | 45% | 49% | 55% | – | 62.8% | – | – | – | – | – | – | – | –
c1ccc(CN2Cc3sccc3C(c3ccccc3)C2)cc1 (stereo not drawn) [derivative n°12, 6-Benzyl-4-phenyl-4,5,6,7-tetrahydro-thieno[2,3-c]pyridine] | 47% | 55% | 93.3% | 47% | 53% | 57% | 60% | – | 63.7% | – | – | – | – | – | – | – | –
Fc1ccccc1CN1Cc2sccc2C(c2ccccc2)C1 (stereo not drawn) [derivative n°13, 6-o.Fluorobenzyl-4-phenyl-4,5,6,7-tetrahydrothieno[2,3-c]pyridine] | 43% | 50% | 94.8% | 46% | 51% | 55% | 57% | – | 64.3% | – | – | – | – | – | – | – | –
COc1cc(CN2Cc3sccc3C(c3ccccc3)C2)cc(OC)c1OC (stereo not drawn) [derivative n°14, 4-Phenyl-6-(3,4,5-trimethoxy-benzyl)-4,5,6,7-tetrahydro-thieno[2,3-c]pyridine] | 43% | 52% | 93.9% | 37% | 44% | 49% | 54% | – | 64.1% | – | – | – | – | – | – | – | –
COC(=O)c1ccccc1CN1Cc2sccc2C(c2ccccc2)C1 (stereo not drawn) [derivative n°15, 6-o.Methoxycarbonylbenzyl-4-phenyl-4,5,6,7-tetrahydro-thieno[2,3-c]pyridine] | 54% | 62% | 92.3% | 39% | 47% | 50% | 54% | – | 61.7% | – | – | – | – | – | – | – | –
O=C(O)c1ccccc1CN1Cc2sccc2C(c2ccccc2)C1 (stereo not drawn) [derivative n°16, 6-o.Carboxybenzyl-4-phenyl-4,5,6,7-tetrahydro-thieno[2,3-c]pyridine] | 49% | 56% | 94.1% | 39% | 45% | 50% | 52% | – | 63.2% | – | – | – | – | – | – | – | –
O=[N+]([O-])c1ccc(CN2Cc3sccc3C(c3ccccc3)C2)cc1 (stereo not drawn) [derivative n°17, 6-p.Nitrobenzyl-4-phenyl-4,5,6,7-tetrahydro-thieno[2,3-c]pyridine] | 43% | 51% | 95% | 42% | 50% | 54% | 58% | – | 63.9% | – | – | – | – | – | – | – | –
Cc1ccc(N2Cc3sccc3C(c3ccccc3)C2)cc1 (stereo not drawn) [derivative n°18, 4-Phenyl-6-p.tolyl-4,5,6,7-tetrahydro-thieno[2,3-c]pyridine] | – | – | – | – | – | – | – | – | – | 47% | 56% | 93.5% | 40% | 48% | 53% | 56% | 62.5%
